According to patent US7268146B2, “Ring fused pyrazole derivatives as CRF antagonists” (Palo Alto LLC, priority 2001, dated 2007):
Counter-ions that a name gives are not always drawn.

Assays:
hCRF1 = molecular target: T1, hCRF1 (Homo sapiens, UniProt P34998); assay: CRF Receptor Binding Assay; settings: CRF1 receptor binding affinity (table title); read-out: hCRF1 (pIC50) (converted)
T1 construct: Celll membranes are prepared according the method of Dieterich and DeSouza (1996); endogenous in cells; host or cells: human IMR-32 neuroblastoma cells (membrane preparation)
T1 sequence (P34998 24-415): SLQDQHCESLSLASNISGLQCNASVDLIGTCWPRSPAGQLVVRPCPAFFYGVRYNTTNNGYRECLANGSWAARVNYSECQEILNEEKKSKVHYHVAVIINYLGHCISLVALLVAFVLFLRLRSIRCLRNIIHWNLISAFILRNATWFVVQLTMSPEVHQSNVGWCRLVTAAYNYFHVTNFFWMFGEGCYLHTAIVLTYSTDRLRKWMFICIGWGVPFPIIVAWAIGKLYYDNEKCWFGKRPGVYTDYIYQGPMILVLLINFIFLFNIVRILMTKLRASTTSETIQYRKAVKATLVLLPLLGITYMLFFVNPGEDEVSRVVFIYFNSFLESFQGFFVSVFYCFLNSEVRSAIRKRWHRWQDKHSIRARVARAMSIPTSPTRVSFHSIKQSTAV
Method: Human IMR-32 neuroblastoma cells are grown to 80% confluence in MEM medium containing 10% heat-inactivated FBS, 1 mM Sodium Pyruvate, and 0.1 mM nonessential amino acids. Celll membranes are prepared according the method of Dieterich and DeSouza (1996). The cells (˜5E+9) are resuspended in 10 volumes of wash buffer (5 mM Tris HCl, 10 mM MgCl2, 2 mM EGTA, pH 7.4 at RT), homogenized with a Polytron, and then centrifuged at 45,000 G for 20 min at 4° C. The membrane pellets are washed twice with wash buffer (45,000 G for 20 min at 4° C.) and then resuspended (50 mM Tris HCl, 10 mM MgCl2, 2 mM EGTA, pH 7.4 at RT). Protein concentration is determined using Pierce reagents and BSA as standard. Aliquots of 1-1.5 ml are stored at −80° C. until binding assay.
The competition binding assay is performed in a final volume of 250 μl, which contains assay buffer (50 mM Tris-HCl, 10 mM MgCl2, 2 mM EGTA, 0.2% BSA, 0.1 mM bacitracin and 100 kIU/ml aprotinin pH 7.2 at R.T.), 0.05 nM [^125I]Tyr^0-ovine CRF (Du Pont New England Nuclear), 50 μg of membrane protein, and test compound at various concentrations. Non-specific binding is determined with 1 uM hCRF. Binding reactions are terminated after 2 hr incubation at 25° C. by filtering through 96-w GF/C filter plate using a Packard Harvester (Filtermate 196). The 96-w filter plate is pre-treated with 0.3% polyethyleneimine and pre-washed with washing buffer (50 mM Tris-HCl, 10 mM MgCl2, 2 mM EGTA, 0.2% BSA, pH 7.2 at 4° C.). Unbound radioactivity is removed by four rapid washes (0.8 ml/well) with wash buffer. The radioactivity is quantified using a Packard TopCount. Data are analyzed using non-linear iterative curve fitting to obtain IC50 and Hill slope values. PKi values are derived from pIC50 values (−log of IC50).

SMILES | IC50 (hCRF1) | melting point
Cc1cc(C)c(N2CCCc3c2nn(C)c3Br)c(Cl)c1 [Example 1, 3-Bromo-7-(2-chloro-4,6-dimethylphenyl)-2-methyl-4,5,6,7-tetrahydro-2H-pyrazolo[3,4-b]pyridine] | 1070 nM | 106 to 107 °C
CCCC(O)(c1cccs1)c1c2c(nn1C)N(c1c(C)cc(C)cc1C)CCC2 (stereo not drawn) [Example 5c, 1-[2-Methyl-7-(2,4,6-trimethylphenyl)-4,5,6,7-tetrahydro-2H-pyrazolo[3,4-b]pyridin-3-yl]-1-thiophen-2-ylbutan-1-ol] | 11200 nM | 175.9 to 178.4 °C
CC/C=C(\CCC)c1c2c(nn1C)N(c1ccc(Cl)cc1Cl)CCC2 [Example 6e, 7-(2,4-Dichlorophenyl)-2-methyl-3-(1-propylbut-1-enyl)-4,5,6,7-tetrahydro-2H-pyrazolo[3,4-b]pyridine] | 234 nM | –
CCCC(CCC)Oc1c2c(nn1C)N(c1ccc(Cl)cc1Cl)CCC2 [Example 12b, 7-(2,4-Dichlorophenyl)-2-methyl-3-(1-propylbutoxy)-4,5,6,7-tetrahydro-2H-pyrazolo[3,4-b]pyridinehydrochloride] | 27.5 nM | –

Next, values leading:

IC50 (hCRF1) | melting point | SMILES
87.1 nM | 91.5 to 92 °C | CCCC(CCC)c1c2c(nn1C)N(c1c(C)cc(C)cc1C)CCC2 [Example 7b, 2-Methyl-3-(1-propylbutyl)-7-(2,4,6-trimethylphenyl)-4,5,6,7-tetrahydro-2H-pyrazolo[3,4-b]pyridine]
776 nM | 59 to 63 °C | Cc1cc(C)c(N2CCCc3c2nn(C)c3-c2ccccc2C(F)(F)F)c(C)c1 [Example 13a, 2-Methyl-3-(2-trifluoromethylphenyl)-7-(2,4,6-trimethylphenyl)-4,5,6,7-tetrahydro-2H-pyrazolo[3,4-b]pyridine]
832 nM | – | CCCN(Cc1ccco1)c1c2c(nn1C)N(c1c(C)cc(C)cc1Cl)CCC2 [Example 9c, [7-(2-Chloro-4,6-dimethyl-phenyl)-2-methyl-4,5,6,7-tetrahydro-2H-pyrazolo[3,4-b]pyridin-3-yl]-furan-2-ylmethyl-propyl-aminetrifluoroacetic acid salt]
12000 nM | – | Cc1cc(C)c(N2CCCc3c2nn(C)c3CN2CCc3ccccc3C2)c(C)c1 [Example 11, 2-[2-Methyl-7-(2,4,6-trimethyl-phenyl)-4,5,6,7-tetrahydro-2H-pyrazolo[3,4-b]pyridin-3-ylmethyl]-1,2,3,4-tetrahydroisoquinolinedihydrochloride]
